Series [1] concerns adipocyte differentiation. To be noted: prior art, Biochem Biophys Res Commun 372 (2008) 108-113; cited from earlier work.
Series [2] can be described thus: Pharmacokinetics in serum and urine upon oral administration. The format is in vivo, rats. To be noted: rats, oral, 100 mg/kg body weight. How it is done: The compound in its free and conjugated form is freely absorbed into systemic circulation with the glucoronide detected up to 72 hours.
(FIG. 4). The compound in its free and conjugated form appears in systemic circulation within 15 minutes of administration.

A further series addresses T1, SIRT1 polypeptide (Homo sapiens, UniProt Q96EB6).
T1 construct: purchased Cayman Chemical Company 10010401
T1 sequence (Q96EB6 1-747): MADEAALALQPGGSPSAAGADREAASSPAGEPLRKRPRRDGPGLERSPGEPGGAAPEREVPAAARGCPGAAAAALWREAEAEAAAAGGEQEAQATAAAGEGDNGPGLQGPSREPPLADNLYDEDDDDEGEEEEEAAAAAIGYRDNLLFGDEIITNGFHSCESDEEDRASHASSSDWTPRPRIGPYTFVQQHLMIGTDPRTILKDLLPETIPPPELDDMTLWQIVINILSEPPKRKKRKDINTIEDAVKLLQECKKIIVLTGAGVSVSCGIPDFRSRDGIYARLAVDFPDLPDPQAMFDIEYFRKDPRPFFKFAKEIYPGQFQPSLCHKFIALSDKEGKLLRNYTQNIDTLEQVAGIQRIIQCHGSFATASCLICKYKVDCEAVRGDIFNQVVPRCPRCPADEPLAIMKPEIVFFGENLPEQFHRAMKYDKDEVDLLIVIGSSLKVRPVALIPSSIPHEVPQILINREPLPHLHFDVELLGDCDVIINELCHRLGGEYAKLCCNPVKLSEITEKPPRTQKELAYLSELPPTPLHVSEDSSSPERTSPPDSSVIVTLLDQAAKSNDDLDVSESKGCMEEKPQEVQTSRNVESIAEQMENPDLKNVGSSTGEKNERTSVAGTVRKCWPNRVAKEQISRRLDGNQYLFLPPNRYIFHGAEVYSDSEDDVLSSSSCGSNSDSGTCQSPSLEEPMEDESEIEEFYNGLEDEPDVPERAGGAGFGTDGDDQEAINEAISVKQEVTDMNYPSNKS
Kind of series: SIRT 1 Direct fluorescent Screening Assay kit (Cayman). To be noted: read-out: Percentage SIRT 1 modulation; for activation at 1 µg/mL: 1 μg/ml; for activation at 10 µg/mL: 10 μg/ml; for activation at 50 µg/mL: 50 μg/ml; for activation at 100 µg/mL: 100 μg/ml; for activation at 250 µg/mL: 250 μg/ml. The format is biochemical. How it is done:
SIRT-1 activation/inhibition was measured using the SIRT 1 Direct fluorescent Screening Assay kit (Catalog No. 10010401) and instructions provided therein of Cayman Chemical Company, 1180 East Ellsworth Road, Ann Arbor, Mich. 48108 USA. (http://www.caymanchem.com/pdfs/10010401.pdf)

Another series has as its system 3T3-L1 cells. Conditions: cited from earlier work.

Consider 14 compounds from patent US20100204340A1 (priority 2009, published 2010).

The structures appear in SMILES notation.

For the compound `COc1c(O)cc(C=Cc2ccccc2)cc1O` [3,5-dihydroxy-4-methoxystilbene], the “Effect on adipocyte differentiation / adipogenesis” value in series [1] was “no effect on adipogenesis”.
On to `CC(=O)O.Cc1c(O)cc(C=Cc2ccccc2)cc1O` [3,5-dihydroxy-4-methylstilbene acetate], for which the “Effect on adipocyte differentiation / adipogenesis” value in series [1] is “no effect on adipogenesis”.
With `COc1ccc(C=Cc2cc(O)cc(O)c2)cc1` [3,5-dihydroxy-40-methoxystilbene], in series [1], the “Effect on adipocyte differentiation / adipogenesis” value is “no effect on adipogenesis”.
`Oc1cc(O)cc(/C=C/c2c(O)cccc2O)c1` [Gnetol, 2,3′,5′,6-tetrahydroxy-trans-stilbene]: the “Oral bioavailability (free form and glucoronide)” value in series [2] (serum) is listed as “orally bioavailable”. The Urinary excretion form result in series [2] (urine) is recorded as “excreted predominantly as glucoronides in the urine”.
As for `Oc1cc(O)cc(/C=C/c2ccc(O)cc2O)c1` [Oxyresveratrol, trans-2,3′,4,5′-tetrahydroxystilbene], at SIRT1 polypeptide, the activation at 1 µg/mL was 77.8%, the activation at 10 µg/mL was determined as 24.4%, the activation at 50 µg/mL was 60% and the activation at 100 µg/mL turned out to be 202%. The activation at 250 µg/mL at SIRT1 polypeptide is 298%.
On to `COc1cc(C=Cc2ccc(O)cc2)cc(OC)c1` [Pterostilbene, 3,5-dimethoxy-4′-hydroxystilbene], for which, at SIRT1 polypeptide, the activation at 1 µg/mL was 2.22%, the activation at 10 µg/mL was found to be 11.1%, the activation at 50 µg/mL stood at 53.3% and the activation at 100 µg/mL stood at 113%. The activation at 250 µg/mL at SIRT1 polypeptide worked out at 231%. Besides, the IC50 in the series with 3T3-L1 cells (approximate conversion of 23.9 μg/ml, read-out: Reported IC50 (adipogenesis), converted) was approximately 96 µM. In the series on 3T3-L1 cells (reported, Remsberg et al., 3T3-L1), the “Reported IC50 (adipogenesis)” value is 23.9 µg/mL.
As to `CC(NC(=O)c1ccccc1/N=C/c1c(O)ccc2ccccc12)c1ccccc1` (stereo not shown) [Sirtinol, 2-[(2-Hydroxynaphthalen-1-ylmethylene)amino]-N-(1-phenyl-ethyl)•benzamide], the activation at 1 µg/mL on SIRT1 polypeptide was found to be 64.4%.
For `Oc1ccc([C@H]2c3c(O)cc(O)cc3[C@H]3c4c(cc(O)cc4[C@@H]2c2cc(/C=C/c4cc(O)cc5c4[C@H](c4cc(O)cc(O)c4)[C@@H](c4ccc(O)cc4)O5)ccc2O)O[C@@H]3c2ccc(O)cc2)cc1` [Vitisin A], the “Effect on adipocyte differentiation / adipogenesis” value in series [1] is on record as “inhibited adipocyte differentiation most effectively”.
Regarding `Oc1ccc(/C=C/c2cc(O)cc3c2[C@@H](c2cc(O)cc(O)c2)[C@H](c2ccc(O)cc2)O3)cc1` [e-viniferin], the “Effect on adipocyte differentiation / adipogenesis” value in series [1] was “no effect on adipogenesis”.
In the case of `CC(=O)Oc1ccc(C=Cc2cc(OC(C)=O)cc(OC(C)=O)c2)cc1` [resveratrol triacetate], in series [1], the “Effect on adipocyte differentiation / adipogenesis” value is on record as “no effect on adipogenesis”.
Consider `OC[C@H]1O[C@@H](Oc2cc(O)cc(/C=C/c3ccc(O)cc3)c2)[C@H](O)[C@@H](O)[C@@H]1O` [resveratrol-3-O-B-D-glucoside], for which the “Effect on adipocyte differentiation / adipogenesis” value in series [1] was “no effect on adipogenesis”.
In the case of `CC(=O)OCC1OC(Oc2cc(C=Cc3ccc(OC(C)=O)cc3)cc(OC(C)=O)c2)C(OC(C)=O)C(OC(C)=O)C1OC(C)=O` (stereo not shown) [resveratrol-3-O-Glu hexaacetate], the “Effect on adipocyte differentiation / adipogenesis” value in series [1] was “no effect on adipogenesis”.
As for `COc1ccc(C=Cc2cc(OC(C)=O)cc(OC3OC(COC(C)=O)C(OC(C)=O)C(OC(C)=O)C3OC(C)=O)c2)cc1OC(C)=O` (stereo not shown) [rhaponticin hexaacetate], the “Effect on adipocyte differentiation / adipogenesis” value in series [1] is on record as “no effect on adipogenesis”.
Regarding `COc1ccc(/C=C/c2cc(O)cc(O[C@@H]3O[C@H](CO)[C@@H](O)[C@H](O)[C@H]3O)c2)cc1O` [rhaponticin], the “Effect on adipocyte differentiation / adipogenesis” value in series [1] is listed as “no effect on adipogenesis”.
